# Data from PMC7721803, “Development of a penem antibiotic against Mycobacteroides abscessus” (Communications Biology, 2020).
# How the values were obtained:
# in vivo = experiment: in vivo; design: species or system BALB/c mice; settings: mouse, sc
# Protocol: (§1) All procedures involving mice were approved by the Animal Care and Use Committee of Johns Hopkins University. […] Blood was sampled from three mice per group per time point by mandibular vein puncture or cardiac puncture at the following time points: 5, 15, 30, 60, 120, and 240 min post-dose. Plasma was separated in heparin-containing tubes and frozen. […] Concentration–time data were analyzed by standard non-compartmental and compartmental techniques using WinNonlin (version 7.0; Pharsight, Mountain View, CA). A one-compartmental model was used to perform simulations to predict the plasma concentration–time profile after subcutaneous doses of 150, 300, and 450 mg/kg, alone and in combination with probenecid. A plasma free drug fraction of 2% of the total drug concentration was included in the simulations.
# [1] = test system: Mycobacterium tuberculosis reference strain H37Rv; experiment: MIC by broth dilution method; assay type: cell-based; settings: 336 h, 37 °C, 14 days
# Protocol: MIC of each drug against M. abscessus was determined using the broth dilution method[27] in accordance with CLSI guidelines specific for this organism, except that Middlebrook 7H9 broth was used instead of cation-adjusted Mueller–Hinton broth. Powdered drug stocks were reconstituted in dimethyl sulfoxide and twofold serial dilutions were prepared in Middlebrook 7H9 broth to obtain final drug concentrations ranging from 512 to 0.5 µg/mL in 96-well plates. 10^5 colony forming units (CFU)/mL of M. abscessus from an exponentially growing culture were added to each well. M. abscessus cultured without drug and 7H9 broth alone were included in each plate as positive and negative controls, respectively. […] Growth of M. abscessus or lack thereof was assessed by visual inspection and an MIC for each drug was recorded as the lowest concentration at which M. abscessus growth was not observed. Results are reported as medians determined from three independent biological replicates. […] Middlebrook 7H9 broth was used for this assay and growth or lack thereof of M. tuberculosis was assessed after incubation at 37 °C for 14 days.
# [2] = Mouse plasma protein binding assay (rapid equilibrium dialysis); assay type: in vitro ADME; settings: mouse plasma/serum, 4 h
# Protocol: The plasma protein binding assay was performed with a Rapid Equilibrium Dialysis (RED) device (Thermo Scientific, Rockford, IL) according to the manufacturer’s directions and as previously described. […] Aliquots were taken at 30 min and 4 h, diluted with phosphate-buffered saline (PBS), and quenched in 75 µL cold acetonitrile/water (9:1) + 0.1% formic acid mixture containing 5 µM internal standard 1,8-diazabicyclo(5.4.0)undec-7-ene (DBU). The resulting mixture was incubated at −80 °C for 30 min and subjected to centrifugation at 20,000 × g for 20 min.
# [3] = PK simulation with one-compartmental model (plasma-free drug, fT>MIC); design: species or system BALB/c mice
# Protocol: as §1, with “University. T405 was dissolved in PBS.” for “University.”, “A one-compartmental model was used to perform simulations to predict the plasma concentration–time profile after subcutaneous doses of 150, 300, and 450 mg/kg, alone and in combination with probenecid.” left out
# [4] = Stability in mouse plasma; assay type: in vitro ADME; settings: 5 μM, 37 °C, over 4 h
structure (smiles),measurement,setting,value
C[C@@H](O)C1C(=O)N2C(C(=O)O)=C(SC3CN(C4=NCCS4)C3)SC12 (stereo in doubt) [T405],half-life,"in vivo; female, BALB/c",1.26 h
same,AUC(0-t),"in vivo; female, BALB/c, 25 mg/kg",205 µg·h/mL
same,Cmax,"in vivo; female, BALB/c, 25 mg/kg",164 µg/mL
same,half-life,"in vivo; female, BALB/c, 25 mg/kg",0.82 h
same,"Half-life, effect of co-administration with cilastatin",in vivo,not affected
same,MIC,[1],0.5 to 1 µg/mL
same,blood plasma binding (bound),[2],98%
same,simulated plasma-free T405 concentration,"[3]; 25mg/kg alone, 0.083 h",3120 ng/mL
same,simulated plasma-free T405 concentration,"[3]; 25mg/kg alone, 0.25 h",3273.33 ng/mL
same,simulated plasma-free T405 concentration,"[3]; 25mg/kg alone, 0.5 h",2446 ng/mL
same,simulated plasma-free T405 concentration,"[3]; 25mg/kg alone, 1 h",1212.67 ng/mL
same,simulated plasma-free T405 concentration,"[3]; 25mg/kg alone, 2 h",526 ng/mL
same,simulated plasma-free T405 concentration,"[3]; 25mg/kg alone, 4 h",131.67 ng/mL
same,simulated plasma-free T405 concentration,"[3]; 25mg/kg alone, 6 h",29.76 ng/mL
same,simulated plasma-free T405 concentration,"[3]; 25mg/kg alone, 8 h",6.87 ng/mL
same,simulated plasma-free T405 concentration,"[3]; 25mg/kg alone, 10 h",1.58 ng/mL
same,simulated plasma-free T405 concentration,"[3]; 25mg/kg alone, 12 h",0.37 ng/mL
same,simulated plasma-free T405 concentration,"[3]; 25mg/kg alone, 16 h",0.02 ng/mL
same,simulated plasma-free T405 concentration,"[3]; 25mg/kg alone, 20 h",0 ng/mL
same,simulated plasma-free T405 concentration,"[3]; 25mg/kg alone, 24 h",0 ng/mL
same,simulated plasma-free T405 concentration,"[3]; 150mg/kg alone, 0.083 h",18720 ng/mL
same,simulated plasma-free T405 concentration,"[3]; 150mg/kg alone, 0.25 h",19640 ng/mL
same,simulated plasma-free T405 concentration,"[3]; 150mg/kg alone, 0.5 h",14676 ng/mL
same,simulated plasma-free T405 concentration,"[3]; 150mg/kg alone, 1 h",7276 ng/mL
same,simulated plasma-free T405 concentration,"[3]; 150mg/kg alone, 2 h",3156 ng/mL
same,simulated plasma-free T405 concentration,"[3]; 150mg/kg alone, 4 h",790 ng/mL
same,simulated plasma-free T405 concentration,"[3]; 150mg/kg alone, 6 h",178.58 ng/mL
same,simulated plasma-free T405 concentration,"[3]; 150mg/kg alone, 8 h",41.2 ng/mL
same,simulated plasma-free T405 concentration,"[3]; 150mg/kg alone, 10 h",9.51 ng/mL
same,simulated plasma-free T405 concentration,"[3]; 150mg/kg alone, 12 h",2.19 ng/mL
same,simulated plasma-free T405 concentration,"[3]; 150mg/kg alone, 16 h",0.12 ng/mL
same,simulated plasma-free T405 concentration,"[3]; 150mg/kg alone, 20 h",0.01 ng/mL
same,simulated plasma-free T405 concentration,"[3]; 150mg/kg alone, 24 h",0 ng/mL
same,simulated plasma-free T405 concentration,"[3]; 300mg/kg alone, 0.083 h",37440 ng/mL
same,simulated plasma-free T405 concentration,"[3]; 300mg/kg alone, 0.25 h",39280 ng/mL
same,simulated plasma-free T405 concentration,"[3]; 300mg/kg alone, 0.5 h",29352 ng/mL
same,simulated plasma-free T405 concentration,"[3]; 300mg/kg alone, 1 h",14552 ng/mL
same,simulated plasma-free T405 concentration,"[3]; 300mg/kg alone, 2 h",6312 ng/mL
same,simulated plasma-free T405 concentration,"[3]; 300mg/kg alone, 4 h",1580 ng/mL
same,simulated plasma-free T405 concentration,"[3]; 300mg/kg alone, 6 h",357.16 ng/mL
same,simulated plasma-free T405 concentration,"[3]; 300mg/kg alone, 8 h",82.4 ng/mL
same,simulated plasma-free T405 concentration,"[3]; 300mg/kg alone, 10 h",19.01 ng/mL
same,simulated plasma-free T405 concentration,"[3]; 300mg/kg alone, 12 h",4.39 ng/mL
same,simulated plasma-free T405 concentration,"[3]; 300mg/kg alone, 16 h",0.23 ng/mL
same,simulated plasma-free T405 concentration,"[3]; 300mg/kg alone, 20 h",0.01 ng/mL
same,simulated plasma-free T405 concentration,"[3]; 300mg/kg alone, 24 h",0 ng/mL
same,predicted free drug time above MIC (fT>MIC),"[3]; 300 mg/kg twice daily, in the presence of avibactam",above 40%
same,simulated plasma-free T405 concentration,"[3]; 450mg/kg alone, 0.083 h",56160 ng/mL
same,simulated plasma-free T405 concentration,"[3]; 450mg/kg alone, 0.25 h",58920 ng/mL
same,simulated plasma-free T405 concentration,"[3]; 450mg/kg alone, 0.5 h",44028 ng/mL
same,simulated plasma-free T405 concentration,"[3]; 450mg/kg alone, 1 h",21828 ng/mL
same,simulated plasma-free T405 concentration,"[3]; 450mg/kg alone, 2 h",9468 ng/mL
same,simulated plasma-free T405 concentration,"[3]; 450mg/kg alone, 4 h",2370 ng/mL
same,simulated plasma-free T405 concentration,"[3]; 450mg/kg alone, 6 h",535.74 ng/mL
same,simulated plasma-free T405 concentration,"[3]; 450mg/kg alone, 8 h",123.6 ng/mL
same,simulated plasma-free T405 concentration,"[3]; 450mg/kg alone, 10 h",28.52 ng/mL
same,simulated plasma-free T405 concentration,"[3]; 450mg/kg alone, 12 h",6.58 ng/mL
same,simulated plasma-free T405 concentration,"[3]; 450mg/kg alone, 16 h",0.35 ng/mL
same,simulated plasma-free T405 concentration,"[3]; 450mg/kg alone, 20 h",0.02 ng/mL
same,simulated plasma-free T405 concentration,"[3]; 450mg/kg alone, 24 h",0 ng/mL
same,predicted free drug time above MIC (fT>MIC),"[3]; 450 mg/kg twice daily with probenecid, in absence of avibactam",54%
same,predicted free drug time above MIC (fT>MIC),"[3]; 450 mg/kg twice daily with probenecid, in presence of avibactam",72%
same,predicted free drug time above MIC (fT>MIC),"[3]; 450 mg/kg twice daily, free fraction 2%, MIC 0.5 µg/mL (ATCC 19977 in presence of avibactam)",48%
same,predicted free drug time above MIC (fT>MIC),"[3]; 450 mg/kg twice daily, free fraction 2%, MIC 2 µg/mL (absence of avibactam)",35%
same,simulated plasma-free T405 concentration,"[3]; 450mg/kg+Prob (with probenecid), 0.083 h",48480 ng/mL
same,simulated plasma-free T405 concentration,"[3]; 450mg/kg+Prob (with probenecid), 0.25 h",52560 ng/mL
same,simulated plasma-free T405 concentration,"[3]; 450mg/kg+Prob (with probenecid), 0.5 h",44640 ng/mL
same,simulated plasma-free T405 concentration,"[3]; 450mg/kg+Prob (with probenecid), 1 h",29664 ng/mL
same,simulated plasma-free T405 concentration,"[3]; 450mg/kg+Prob (with probenecid), 2 h",16020 ng/mL
same,simulated plasma-free T405 concentration,"[3]; 450mg/kg+Prob (with probenecid), 4 h",6636 ng/mL
same,simulated plasma-free T405 concentration,"[3]; 450mg/kg+Prob (with probenecid), 6 h",2425.1 ng/mL
same,simulated plasma-free T405 concentration,"[3]; 450mg/kg+Prob (with probenecid), 8 h",908.73 ng/mL
same,simulated plasma-free T405 concentration,"[3]; 450mg/kg+Prob (with probenecid), 10 h",340.52 ng/mL
same,simulated plasma-free T405 concentration,"[3]; 450mg/kg+Prob (with probenecid), 12 h",127.6 ng/mL
same,simulated plasma-free T405 concentration,"[3]; 450mg/kg+Prob (with probenecid), 16 h",17.92 ng/mL
same,simulated plasma-free T405 concentration,"[3]; 450mg/kg+Prob (with probenecid), 20 h",2.52 ng/mL
same,simulated plasma-free T405 concentration,"[3]; 450mg/kg+Prob (with probenecid), 24 h",0.35 ng/mL
same,stability in mouse plasma,[4],no measurable degradation
